Results reported in patent US7179824B2, “Arthropodicidal anthranilamides” (E. I. du Pont de Nemours and Company, priority 2001, dated 2007).

- melting point: 173 to 176 °C
SMILES: Cc1cc(Cl)cc(C(=O)NC(C)C)c1N(C(=O)c1cc(C(F)(F)F)n[nH]1)c1ncccc1Cl [Compound 4, N-[4-chloro-2-methyl-6-[[(1-methylethyl)amino]carbonyl]phenyl]-N-(3-chloro-2-pyridinyl)-3-(trifluoromethyl)-1H-pyrazole-5-carboxamide]
